Data from US20130053336A1, “TREATMENT OF CHLAMYDIACEAE INFECTIONS BY MEANS OF BETA-LACTAMS” (priority 2010, published 2013).

Test system: persistent forms of Chlamydia
Experiment: Penicillin G on persistent infection induced by IFN-γ
Assay type: cell-based, Chlamydia trachomatis
Protocol: HeLa cells cultured in monolayers on slides were infected with serovar L2 with an IFU of 1, as described above (Verbeke, P. et al. PLoS Pathog 2:e45, 2006). Three hours after the infection, the medium was removed and replaced with culture medium containing 500 IU/ml (final concentration) recombinant human IFN-γ. The infected cells were incubated for an additional 100 hours in the presence of IFN-γ before being prepared for confocal microscopy as described below.
HeLa cells cultured in monolayers on slides were infected with Chlamydia trachomatis serovar L2 and treated with penicillin G, as described above. Twenty hours after infection, the culture was washed and the medium replaced with medium free of penicillin G. Between 48 and 100 hpi, the cells and the culture medium were collected at various intervals and a titration test was performed according to the method of the prior art (Scidmore, M. A. Curr Protoc Microbiol Chapter 11: Unit 11A 11, 2005). To determine whether treatment with penicillin G could affect bacterial persistence, HeLa cells infected with L2 and treated with IFN-γ and penicillin G (500 IU/ml) from 48 hpi (i.e. 24 hours after treatment with IFN-γ) to 72 hpi (i.e. 48 hours after treatment with IFN-γ). The slides were then fixed and observed using an epifluorescence microscope (Leica D M, Leica, Mannheim, Germany) equipped with two sets of detection filters (Hoechst 360/40 nmBP-425 nmLP; FITC 480/40 nmBP-527/30 nmBP) and connected to a CCD camera CCC.
The effects of penicillin G were tested on persistent infections. Cells were infected and then treated with IFN-γat 3 hpi. Once the appearance of persistent inclusions was observed under the microscope, penicillin G was added to the infected cells cultured in the presence of IFN-γ.

**Q.** How did the “inclusion growth of persistent inclusions after addition of penicillin G” value (cells kept in IFN-γ) turn out when `CC1(C)S[C@@H]2[C@H](NC(=O)Cc3ccccc3)C(=O)N2[C@H]1C(=O)O` [Penicillin G, benzylpenicillin] was run?
**A.** Rapid reinitiation of inclusion growth

**Q.** And the “infectivity of bacteria released on lysis” value (persistent infection)?
**A.** noninfectious

**Q.** And the “time of cell lysis after start of treatment” value (persistent infection, IFN-γ present)?
**A.** 70 h

**Q.** And the “cathepsin D in bacterial forms of persistent infection” value (twenty-four hours after addition of penicillin G)?
**A.** most of the abnormal bacterial forms contained cathepsin D
